Our source for the solubility and IC50 values is patent publication US20250179079A1, “HEXAHYDROPYRIDO[4,3-B]INDOLYL KETONE DERIVATIVES USEFUL AS CGAS MODULATORS” (Ventus Therapeutics U.S., Inc., priority 2022, published 2025).

Data set [1] is described as follows: Solubility (e.g., in phosphate buffered saline (PBS)). It counts as physicochemical. To be noted: aqueous buffer, Table D.
Another data set concerns the target h-cGAS (Homo sapiens (Human), UniProt Q8N884). The experiment in a line: hcGAS Kinase-Glo assay. It is filed as biochemical.
Where [2] appears, read: Table D comparative data, IC50 range designation, read-out: hcGAS (IC50).
[3] abbreviates: Table D comparative data, raw data in parentheses, read-out: hcGAS (IC50).
[4] abbreviates: Table C, IC50 range designation, read-out: hcGAS IC50.
[5] abbreviates: Table C, raw data in parentheses, read-out: hcGAS IC50.

Converted amounts (≈) assume the structure as drawn. Where two headings read alike, the source gives them in different places.

h-cGAS, sequence (Q8N884 whole entry): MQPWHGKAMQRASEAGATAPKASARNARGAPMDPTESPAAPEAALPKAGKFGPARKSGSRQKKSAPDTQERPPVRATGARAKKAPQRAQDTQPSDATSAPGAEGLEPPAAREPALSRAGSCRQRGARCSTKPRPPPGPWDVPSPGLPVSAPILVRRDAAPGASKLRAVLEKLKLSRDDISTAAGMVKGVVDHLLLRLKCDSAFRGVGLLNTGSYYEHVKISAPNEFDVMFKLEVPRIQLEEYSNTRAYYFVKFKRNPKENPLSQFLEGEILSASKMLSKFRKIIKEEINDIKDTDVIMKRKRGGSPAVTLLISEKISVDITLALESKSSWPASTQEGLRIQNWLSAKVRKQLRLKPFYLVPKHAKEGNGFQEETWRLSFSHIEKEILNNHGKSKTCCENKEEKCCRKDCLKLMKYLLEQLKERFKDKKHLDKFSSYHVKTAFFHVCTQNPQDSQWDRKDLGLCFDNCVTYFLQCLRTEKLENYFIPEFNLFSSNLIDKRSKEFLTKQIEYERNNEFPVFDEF

`O=C(CO)N1CCc2[nH]c3c(Cl)c(Cl)ccc3c2C1` [Comparative Example A, 1-(6,7-dichloro-1,3,4,5-tetrahydro-2H-pyrido[4,3-b]indol-2-yl)-2-hydroxyethan-1-one] gave a solubility in data set [1] of 2 µM (≈ 0.598 µg/mL).
Turning to `Cn1ccc(-c2cc(Cl)c(Cl)c3[nH]c4c(c23)CN(C(=O)CO)CC4)n1` [Comparative Example B, 1-(6,7-dichloro-9-(1-methyl-1H-pyrazol-3-yl)-1,3,4,5-tetrahydro-2H-pyrido[4,3-b]indol-2-yl)-2-hydroxyethan-1-one, reference compound], in data set [1], the concentration in solution (solubility) came to 8.1 µM (≈ 3.07 µg/mL). The IC50 is below 100 nM at h-cGAS (setting [2]) and 35.2 nM at h-cGAS (setting [3]).
The corresponding values for `O=C(CO)N1CCn2nc3c(Cl)c(Cl)ccc3c2C1` [Comparative Example C, 1-(7,8-dichloro-3,4-dihydropyrazino[1,2-b]indazol-2(1H)-yl)-2-hydroxyethan-1-one, reference compound] are 76 µM (≈ 22.8 µg/mL), above 5000 nM and 12800 nM.
In data set [1], `Cn1ccc(-c2cc(Cl)c(Cl)c3nn4c(c23)CN(C(=O)CO)CC4)n1` [Comparative Example D, 1-(7,8-dichloro-10-(1-methyl-1H-pyrazol-3-yl)-3,4-dihydropyrazino[1,2-b]indazol-2(1H)-yl)-2-hydroxyethan-1-one, reference compound] registered a solubility of 53 µM (≈ 20.2 µg/mL).
Consider `NC(=O)C(=O)N1CCc2[nH]c3c(Cl)c(Cl)ccc3c2C1` [Compound 57, 2-(6,7-dichloro-1,3,4,5-tetrahydro-2H-pyrido[4,3-b]indol-2-yl)-2-oxoacetamide], for which the values for the IC50 at h-cGAS (setting [4]), on h-cGAS (setting [5]) and on h-cGAS (read-out: hcGAS activity) were 1000 to 5000 nM, 4210 nM and 1000 to 5000 nM, respectively.
Regarding `NNC(=O)N1CCc2[nH]c3c(Cl)c(Cl)ccc3c2C1` [Compound 59, 6,7-dichloro-1,3,4,5-tetrahydro-2H-pyrido[4,3-b]indole-2-carbohydrazide], the IC50 at h-cGAS (setting [4]) was 100 to 500 nM; on h-cGAS (setting [5]), 620 nM; on h-cGAS (read-out: hcGAS activity), 100 to 500 nM.
On to `CNCC(=O)N1CCc2[nH]c3c(Cl)c(Cl)ccc3c2C1` [Compound 64, 1-(6,7-dichloro-1,3,4,5-tetrahydro-2H-pyrido[4,3-b]indol-2-yl)-2-(methylamino)ethan-1-one], for which the IC50 on h-cGAS (setting [5]) was 1490 nM; at h-cGAS (read-out: hcGAS activity), 1000 to 5000 nM.
Regarding `NCC(=O)N1Cc2[nH]c3c(Cl)c(Cl)ccc3c2C1` [Compound 65, 2-amino-1-(5,6-dichloro-3,4-dihydropyrrolo[3,4-b]indol-2(1H)-yl)ethan-1-one], the results for the IC50 on h-cGAS (setting [4]) and at h-cGAS (setting [5]) were 500 to 1000 nM and 933 nM, respectively.
Take `NCC(=O)N1C2COCC1c1c([nH]c3c(Cl)c(Cl)ccc13)C2` (stereo not shown) [Compound 66, 2-amino-1-(8,9-dichloro-1,2,4,5,6,7-hexahydro-1,5-epiminooxocino[5,4-b]indol-12-yl)ethan-1-one]: the IC50 at h-cGAS (setting [4]) is 100 to 500 nM; on h-cGAS (setting [5]), 314 nM; at h-cGAS (read-out: hcGAS activity), 100 to 500 nM.
Consider `COCCNCC(=O)N1CCc2[nH]c3c(Cl)c(Cl)ccc3c2C1` [Compound 69, 1-(6,7-dichloro-1,3,4,5-tetrahydro-2H-pyrido[4,3-b]indol-2-yl)-2-((2-methoxyethyl)amino)ethan-1-one], for which the results for the IC50 at h-cGAS (setting [4]), on h-cGAS (setting [5]) and on h-cGAS (read-out: hcGAS activity) were 500 to 1000 nM, 678 nM and 1000 to 5000 nM, respectively.
Take `C[C@H]1c2c([nH]c3c(Cl)c(Cl)ccc23)CCN1C(=O)CO` [Compound 157, (S)-1-(6,7-dichloro-1-methyl-1,3,4,5-tetrahydro-2H-pyrido[4,3-b]indol-2-yl)-2-hydroxyethan-1-one]: in data set [1], the solubility was 42 µM (≈ 13.2 µg/mL). In other words, the double-digit micromolar range.
